Results: publication PMC4432228, “Tight regulation of the unfolded protein sensor Ire1 by its intramolecularly antagonizing subdomain” (Journal of Cell Science, 2015)

Tested on: MBP–CSSR (core stress-sensing region of yeast Ire1)
Experiment: In vitro competition assay for peptide binding to the CSSR (fluorescence anisotropy of ΔEspP–FAM)
Set-up: species or system Saccharomyces cerevisiae
Conditions: Fig. 6C
Method: Fig. 6. Two-hybrid and in vitro interaction of the CSSR with various peptides. (A,B) A yeast two-hybrid analysis was performed using the CSSR and its mutants as prey. The Subregion I 60-amino-acid portion (Sub-I), Segment 4 (Seg4; six tandem repeat), GGGSS (12 tandem repeat), Segments 1–3 (Segs1–3; amino acids 32–61 of yeast Ire1; two tandem repeat), Segments 4–6 (Segs4–6; amino acids 62–91 of yeast Ire1; two tandem repeat), the NUCR of human or mouse PERK (hPERK or mPERK), the Top2 IDR (Top2; two tandem repeat) and the San1 IDR (San1) were used as bait. Tester cell cultures were serially diluted tenfold, spotted on agar plates, incubated for 2–4 days and photographed. WT, wild type. (C) A fluorescently labeled peptide DEspP–FAM (10 µM final concentration) was mixed with MBP–CSSR (5 µM final concentration) and a competitor peptide [Segment (Seg) 2–6] and measured for fluorescence anisotropy. The resulting values from triplicate assays (mean±s.d.) are normalized to that for the no competitor peptide condition.
Next, we performed an in vitro competition assay to monitor the affinity of the Subregion I segments for the CSSR. A recombinant CSSR protein tagged with the maltose-binding protein (MBP–CSSR) was expressed in Escherichia coli and purified with amylose resin ([Kimata et al., 2007]). […]

Segment 4: Untagged competitor peptide NH2-KKKA-[10 amino acids of Segment 4 of yeast Ire1 Subregion I]-AAKKKK-COOH (H-KKKAIPAPRTTEGLAAKKKK-OH)
Affinity of capture by the CSSR relative to other Subregion I segments (in vitro competition analysis): higher affinity than for other segments
Reduction of ΔEspP–FAM fluorescence anisotropy by competitor peptide (reduced association between ΔEspP–FAM and MBP–CSSR) (ΔEspP–FAM 10 µM, MBP–CSSR 5 µM, elution buffer A (50 mM HEPES pH 8.0), 30 min incubation, 25°C, triplicate assays, normalized to no competitor): more effectively than the other segments did
